Patent US20250108036A1, “COMPOSITIONS FOR REMOVING SENESCENT CELLS AND USES THEREOF” (LIFECEUTIX CO., LTD., priority 2021, published 2025)
Where two headings read alike, the source gives them in different places.

How the values were obtained:
HMGN1 = HMGN1 ELISA in culture medium of foreskin cells (Examples 10, 11; Tables 62, 63, 64); type: cell-based, human; conditions: for HMGN1 (pg/ml): senescent foreskin cells
senescent foreskin cells = test: survival of senescent foreskin cells treated with medium supernatant (secreted fluid) of compound-killed cells (Example 13, Tables 68, 69); type: cell-based, human; conditions: for Survival (%): supernatant-treated cells: senescent cells, after 3 days
Procedure: (§1) After 3 days, cell viability was measured using CellTiter-Glo Luminescent Cell Viability Assay (Promega) or light microscopy.

AST, ALT = test: serum AST and ALT in doxorubicin-aged mice (Example 8-8); type: in vivo, C57BL6J mice; conditions: doxorubicin-aged mice, LX-112 70 mg/kg oral daily 21 days, DOX without LX = 100%
Procedure: After adapting 8-week-old male C57BL6J mice (purchased from KRIBB Laboratory Animal Resource Center) to the experimental environment for 1 week, doxorubicin, an anticancer drug, was administered intraperitoneally at a concentration of 10 mg/kg, and mice that were induced to age for more than 10 days were assigned to an experimental group and a control group. LX-112 was mixed with 0.5% CMC-Na solution (purchased from Sigma) and administered orally at a concentration of 70 mg/kg daily for 21 days. The control group was administered only the solution in the same volume. After drug administration was completed, the method described in each Example below was performed.
In the same manner as in Example 7-5, the amounts of AST (aspartate aminotransferase) and ALT (alanine transaminase) released into the blood during liver damage were measured by spectrophotometry in the serum collected from mice using a kit (purchased from Sigma) according to the method described in the manual. […] Table 50 calculates the amount of each factor after aging was induced by treatment with the anticancer drug as 100% and compared it with the amount of each factor after treatment with LX-112.

[1] = test system: foreskin cells in which senescence was not induced; test: CellTiter-Glo growth of foreskin cells in which senescence was not induced (Tables 5, 12); conditions: 3 days
Procedure: as §1

p16, p21 = test: qRT-PCR of p16 and p21 mRNA in replicative senescent foreskin cells (Example 4); type: cell-based, human; conditions: LX-112 3 μM; senescent untreated = 100%
Procedure: In the same manner as Example 3, natural aging of human foreskin cells was induced, treated with LX-112 at a concentration of 3 μM, and the amounts of the mRNA of p16 and p21, aging-related markers, were analyzed by qRT-PCR (quantitative real-time PCR). As a control group, foreskin cells before senescence induction were used. Specifically, cells were collected and treated with TRIzol Reagent (purchased from Thermo Fisher Scientific) to extract total RNA. The concentration of extracted total RNA was quantified using Nanodrop (purchased from Micro Digital). Genomic DNA was removed from the extracted total RNA using SuperScript IV VILO Master Mix with ezDNase Enzyme (purchased from Thermo Fisher Scientific), and cDNA was prepared. Using the synthesized cDNA, using the housekeeping gene GAPDH as a standard, qRT-PCR for p16 and p21 was performed using SFCgreen I qPCR Master Mix (purchased from SFC Probe), and was analyzed with CFX Connect Real-Time PCR Detection System (purchased from Bio Rad). […] Table 14 calculates the mRNA amounts of p16 and p21 after senescence was induced to 100%, respectively, and compared them with the mRNA amounts of p16 and p21 after treatment with LX-112.

[2] = test system: foreskin cells in which senescence was induced by doxorubicin; test: CellTiter-Glo cell viability of doxorubicin-induced senescent foreskin cells (Examples 1-2, 10, 11, 13; Tables 4, 63, 65); type: cell-based, human; conditions: for viability at 1.1 µM / viability at 10 µM: Homo sapiens, 72 h, read-out: Survival (%); for viability at 10 µM: LX-112 10 μM
Procedure: as §1

[3] = open field test in obese mice given senescent cells killed by test compounds (Example 16, Table 72); type: in vivo, C57BL6J mice; conditions: obese mice administered senescent cells whose death was induced by the test compound
Description: To obtain preadipocytes, groin fat tissue was collected from an 8-week-old female C57BL6J mouse (purchased from KRIBB Laboratory Animal Resource Center). The fat tissue was cut into small pieces and treated with collagenase to decompose the fat tissue, then centrifuged to collect the stromal vascular fraction (SVF) containing preadipocytes. It was washed with a washing medium (HBSS, purchased from GenDEPOT; 3.5% Albumin Fraction V, purchased from GenDEPOT; 100 U/ml Penicillin & Streptomycin, purchased from Invitrogen), mixed again, and extracted by filtering through a 100 μm nylon mesh. The isolated preadipocytes were cultured in the designated medium (DMEM, purchased from GenDEPOT; 20% FBS, purchased from GenDEPOT; 100 U/ml Penicillin & Streptomycin, purchased from Invitrogen). In the same manner as Example 1, cells were treated with doxorubicin at a concentration of 250 nM for 24 hours and cultured for an additional 21 days to induce cell senescence. Cells were treated with doxorubicin at a concentration of 250 nM for 24 hours and cultured for an additional 21 days to induce cell senescence. By treating the test compounds in the same manner as in Example 13, it was confirmed using an optical microscope that the death of most senescent cells was induced. The killed preadipocytes were washed using PBS (purchased from Welgene) and then mixed with PBS at a concentration of 5×10^5 cells/200 μl. It was administered subcutaneously to 8-week-old female C57BL6J mice (purchased from KRIBB Laboratory Animal Resource Center). At 7 and 10 days after administration of the killed senescent cells, 2 million senescent preadipocytes were mixed in 200 μl of PBS and administered into the abdominal cavity of mice. After administration of killed senescent cells, obesity was induced in mice with a high-fat diet (DIO) for 8 weeks in the same manner as in Example 9-1. Afterwards, the mouse was sacrificed in the same manner as in Example 7-2, total RNA was extracted from the groin fat tissue, and qRT-PCR was performed and analyzed using the synthesized cDNA. […] The mRNA amount of p16, MMP3, and IL6 without administration of senescent cells whose death was induced by the test compounds was calculated as 100%, and the amount of p16, MMP3, and IL6 after administration of the senescent cells whose death was induced by the test compounds was compared with them. Furthermore, an open field test was performed to analyze aging-related frailty in mice using the same method as Example 7-7. […] The amount of activity evaluation without administration of senescent cells whose death was induced by the test compounds was calculated as 100% and compared it with the amount of activity evaluation after administration of senescent cells whose death was induced by the test compounds.

[4] = test system: normally proliferating foreskin cells; test: survival of normally proliferating foreskin cells treated with medium supernatant (secreted fluid) of compound-killed cells (Example 13, Table 68); type: cell-based, human; conditions: after 3 days
Procedure: After treating cells with the test compound at a high concentration that induces the death of most cells in both non-senescence-induced and senescence-induced cells, the cells were washed three times with PBS to remove the test compound, and replaced with fresh medium and cultured for an additional 3 hours at the time when the compound has entered into the cell but has not yet induced cell death (approximately 1 to 3 hours after compound treatment). During this additional culture, by checking with an optical microscope, etc., the medium supernatants containing secreted fluid from normally proliferating and senescent cells in which cell death was induced were obtained. The obtained medium supernatant was replaced with the medium of normally proliferating and senescent cells, respectively, and cell survival rate was measured after 3 days.

[5] = supernatant from compound-treated medium without cells (No Cells)
[6] = supernatant from death-induced proliferating foreskin cells (compound 30 μM)
[7] = supernatant from death-induced senescent foreskin cells (compound 30 μM)

## O=c1c2ccccc2[se]n1CCn1[se]c2ccccc2c1=O [LX-112, 1,2-[bis(1,2-benzisoselenazolone-3(2H)-ketone)]ethane]
HMGN1; 10 μM, culture medium after 6 hours
  HMGN1 (pg/ml): 262.45 (±23.4) pg/ml
HMGN1; ABT-263 1 μM or LX-112 10 μM, 6 hours
  HMGN1 secreted in the culture medium from dying senescent cells: greatly increased
HMGN1; LX-112 1.1 μM
  HMGN1 (pg/ml): 129.7(±9.3) pg/ml
HMGN1; LX-112 10 μM
  HMGN1 (pg/ml): 262.45 (±23.4) pg/ml
Senescent foreskin cells; supernatant from normally proliferating or senescent cells, survival after 3 days
  death of senescent cells by medium supernatant (secreted fluid) of cells killed by the compound: selectively induced the death of senescent cells
AST, ALT
  ALT (%): 72.2 (±14.1) %
  AST (%): 78 (±17.3) %
[1]; Table 5, LX-112 1.1 μM, N0 (cell number before treatment) = 100%
  Growth (%): 201 (±8) %
[1]; Table 5, LX-112 10 μM, N0 = 100%
  Growth (%): 123 (±8) %
[1]; Table 12, LX-112 1.1 μM, N0 = 100%
  Growth (%): 206 (±15) %
[1]; Table 12, LX-112 10 μM, N0 = 100%
  Growth (%): 122.7 (±16) %
p16, p21
  mRNA (%) p16: 43 (±4) %
  mRNA (%) p21: 39 (±7) %
[2]; LX-112 1.1 μM, 3 days
  viability at 1.1 µM: 67.2%
[2]; LX-112 1.1 μM, senescent foreskin cells
  viability at 1.1 µM: 67.2%
[2]; 3 days
  viability at 10 µM: 1%
[2]; senescent foreskin cells
  viability at 10 µM: 1%

## COC(=O)c1ccc([C@H]2c3[nH]c4ccccc4c3C[C@H](C(=O)OC)N2C(=O)CCl)cc1 [LX-405]
HMGN1; Homo sapiens, 30 μM test compound, doxorubicin-treated foreskin cells, DMSO = 100, read-out: HMGN1
  activity at 30 µM: 285%
Senescent foreskin cells; [5]
  Survival (%): 102.8 (±4.6) %
Senescent foreskin cells; [6]
  Survival (%): 41.3 (±3.6) %
Senescent foreskin cells; [7]
  Survival (%): 52.7 (±0.1) %
[3]
  Open Field Test Time in Center (%): 174.2 (±12.5) %
[4]; [5]
  Survival (%): 99.4 (±2.4) %
[4]; [6]
  Survival (%): 104 (±3) %
[4]; [7]
  Survival (%): 100.2 (±5.6) %
[1]; 30 μM
  cell death, normally proliferating cells: induced the death of most cells
[2]; 30 μM, 3 days
  cell death, senescent cells: induced the death of most cells
[2]; 1.1 μM test compound, doxorubicin-induced senescent foreskin cells, CellTiter-Glo, 0 μM = 100
  viability at 1.1 µM: 4.9%
